Measured values as given in patent US20210220356A1, “DIHYDROPYRIMIDINE DERIVATIVES AND USES THEREOF IN THE TREATMENT OF HBV INFECTION OR OF HBV-INDUCED DISEASES” (Janssen Sciences Ireland Unlimited Company, priority 2018, published 2021).
Read-outs that look alike come from different tables or passages of the source.

How the values were obtained:
HBV = HBV inhibitory activity in HepG2.2.15 cells (HBV DNA in culture medium by q-PCR); type: cell-based; settings: HepG2.2.15 cells, 40,000 cells/well, 6 days of compound treatment, HBV DNA in culture medium by q-PCR, highest concentration 10 uM, read-out: EC50
Experimental: (§1) • HepG2.2.15 (the HepG2.2.15 cell line can be produced by transfection of the HepG2 cell line as described in Sells, Chen, and Acs 1987 (Proc. Natl. Acad. Sci. USA 84: 1005-1009), and the HepG2 cell line is available from ATCC® under number HB-8065™)
(§2) Seed the cell HepG2.2.15 cells into 96-well plate in 2% FBS culture medium at the density of 40,000 cells/well and 5,000 cells/well for HBV inhibitory activity and cytotoxicity determination, respectively. After seeding, incubate the cell plates at 37° C., 5% CO2 overnight. The next day, medium containing compounds is added to the cell to treat the cells for 6 days with medium refreshed once in the middle of the treatment. 8 dose points with 3 folds dilution of each compound were adopted and the highest concentration of the compounds is 10 uM and 100 uM for HBV inhibitory activity and cytotoxicity determination, respectively.
The HBV DAN change in the cell culture medium induced by the compounds is measured by q-PCR method. Briefly, the HBV DNA in the culture medium is extracted using QIAamp 96 DNA Blood Kit according to the manual and then quantified by q-PCR using the primers and probe in the table below.
(§3) EC50 and CC50 values are calculated by the GRAPHPAD PRISM software.

HepG2.2.15 cells = experiment: Cytotoxicity determination in HepG2.2.15 cells (CCK-8); type: cell-based; settings: HepG2.2.15 cells, 5,000 cells/well, 6 days of compound treatment, CCK-8 absorbance 450 nm, highest concentration 100 uM
Experimental: as §1, §2
After 6 days of compounds treatment, add 20 μl CCK-8 reagents to each well of cytotoxicity assay plates, incubate the plate at 37° C., 5% CO2 for 2.5 h and measure the absorbance at 450 nm wavelength, at the same time read the absorbance at 630 nm wavelength as reference.
as §3

Compound | EC50 (HBV) [nM] | CC50 (HepG2.2.15 cells) [µM] | EC50 (HBV; Hepatitis B virus, HepG2.2.15, 144 h) [nM]
CCOC(=O)C1=C(C2CCc3nc(CCC(=O)O)sc3C2)NC(c2nccs2)=NC1c1ccc(F)c(F)c1Cl (single isomer, unassigned) [Compound 60c, 3-(6-(6-(2-Chloro-3,4-difluorophenyl)-5-(ethoxycarbonyl)-2-(thiazol-2-yl)-3,6-dihydropyrimidin-4-yl)-4,5,6,7-tetrahydrobenzo[d]thiazol-2-yl)propanoic acid] | 13.5 | 5.5 | 
COC(=O)C1=C(C2CCc3nn(CCC(=O)O)cc3C2)NC(c2nccs2)=NC1c1cccc(F)c1Br (single isomer, unassigned) [Compound 45c, 3-(5-(6-(2-Bromo-3-fluorophenyl)-5-(methoxycarbonyl)-2-(thiazol-2-yl)-3,6-dihydropyrimidin-4-yl)-4,5,6,7-tetrahydro-2H-indazol-2-yl)propanoic acid] | 47.3 | 32.2 | 
CCOC(=O)C1=C(C2CCc3oc(CCC(=O)O)nc3C2)NC(c2nccs2)=NC1c1ccc(F)c(F)c1Cl (single isomer, unassigned) [Compound 57f, 3-(5-(6-(2-Chloro-3,4-difluorophenyl)-5-(ethoxycarbonyl)-2-(thiazol-2-yl)-3,6-dihydropyrimidin-4-yl)-4,5,6,7-tetrahydrobenzo[d]oxazol-2-yl)propanoic acid] | 90.8 | 12.6 | 
CCOC(=O)C1=C(C2CCc3nn(C(C)CC(=O)O)cc3C2)NC(c2nccs2)=NC1c1ccc(F)c(F)c1Cl (single isomer, unassigned) [Compound 51c, 3-(5-(6-(2-chloro-3,4-difluorophenyl)-5-(ethoxycarbonyl)-2-(thiazol-2-yl)-3,6-dihydropyrimidin-4-yl)-4,5,6,7-tetrahydro-2H-indazol-2-yl)butanoic acid] | 9.7 | 8.6 | 
CCOC(=O)C1=C(C2CCc3nn(CCC(=O)O)cc3C2)NC(c2nccs2)=NC1c1cccc(F)c1C (single isomer, unassigned) [Compound 41b, 3-(5-(5-(Ethoxycarbonyl)-6-(3-fluoro-2-methylphenyl)-2-(thiazol-2-yl)-3,6-dihydropyrimidin-4-yl)-4,5,6,7-tetrahydro-2H-indazol-2-yl)propanoic acid] | 292 | 6.6 | 
CCOC(=O)C1=C(C2CCc3nn(C(C)CC(=O)O)cc3C2)NC(c2nccs2)=NC1c1ccc(F)c(F)c1Cl (single isomer, unassigned) [Compound 52b, 3-(5-(6-(2-chloro-3,4-difluorophenyl)-5-(ethoxycarbonyl)-2-(thiazol-2-yl)-3,6-dihydropyrimidin-4-yl)-4,5,6,7-tetrahydro-2H-indazol-2-yl)butanoic acid] |  | 5.8 | 
CCOC(=O)C1=C(C2CCc3nn(CCC(=O)O)cc3C2)NC(c2nccs2)=NC1c1ccc(F)cc1Cl (single isomer, unassigned) [Compound 37c, 3-(5-(6-(2-Chloro-4-fluorophenyl)-5-(ethoxycarbonyl)-2-(thiazol-2-yl)-3,6-dihydropyrimidin-4-yl)-4,5,6,7-tetrahydro-2H-indazol-2-yl)propanoic acid] | 22.2 | 21.1 | 
CCOC(=O)C1=C(C2CCc3nn(CCCC(=O)O)cc3C2)NC(c2nccs2)=NC1c1ccc(F)c(F)c1Cl (single isomer, unassigned) [Compound 50c, 4-(5-(6-(2-Chloro-3,4-difluorophenyl)-5-(ethoxycarbonyl)-2-(thiazol-2-yl)-3,6-dihydropyrimidin-4-yl)-4,5,6,7-tetrahydro-2H-indazol-2-yl)butanoic acid] | < 4.6 | 11.9 | 
CCOC(=O)C1=C(C2CCc3nn(CCC(=O)O)cc3C2)NC(c2nccs2)=NC1c1ccc(F)c(F)c1Cl (single isomer, unassigned) [Compound 34d, 3-(5-(6-(2-chloro-3,4-difluorophenyl)-5-(ethoxycarbonyl)-2-(thiazol-2-yl)-3,6-dihydropyrimidin-4-yl)-4,5,6,7-tetrahydro-2H-indazol-2-yl)propanoic acid] | 146 | 20.6 | 
CCOC(=O)C1=C(C2CCc3nn(CCC(=O)O)cc3C2)NC(c2ncc(F)cc2F)=NC1c1ccc(F)c(F)c1Cl (single isomer, unassigned) [Compound 43c, 3-(5-(6-(2-Chloro-3,4-difluorophenyl)-2-(3,5-difluoropyridin-2-yl)-5-(ethoxycarbonyl)-3,6-dihydropyrimidin-4-yl)-4,5,6,7-tetrahydro-2H-indazol-2-yl)propanoic acid] | 5.9 | 29.9 | 
COC(=O)C1=C(C2CCc3nn(CCC(=O)O)cc3C2)NC(c2nccs2)=NC1c1ccc(F)c(F)c1Cl (single isomer, unassigned) [Compound 70d, 3-(-5-(6-(2-chloro-3,4-difluorophenyl)-5-(methoxycarbonyl)-2-(thiazol-2-yl)-3,6-dihydropyrimidin-4-yl)-4,5,6,7-tetrahydro-2H-indazol-2-yl)propanoic acid] | 8.03 | 24.3 | 
COC(=O)C1=C(C2CCc3nn(CCCC(=O)O)cc3C2)NC(c2nccs2)=NC1c1ccc(F)c(F)c1Cl (single isomer, unassigned) [Compound 74c, 4-(5-(6-(2-chloro-3,4-difluorophenyl)-5-(methoxycarbonyl)-2-(thiazol-2-yl)-3,6-dihydropyrimidin-4-yl)-4,5,6,7-tetrahydro-2H-indazol-2-yl)butanoic acid] | 9.1 | 18.2 | 
COC(=O)C1=C(C2CCc3nc([C@H]4C[C@H](C(=O)O)C4)sc3C2)NC(c2nccs2)=NC1c1ccc(F)c(F)c1Cl (single isomer, unassigned) [Compound 68b, (trans)-3-(-6-(-6-(2-chloro-3,4-difluorophenyl)-5-(methoxycarbonyl)-2-(thiazol-2-yl)-3,6-dihydropyrimidin-4-yl)-4,5,6,7-tetrahydrobenzo[d]thiazol-2-yl)cyclobutanecarboxylic acid] |  | 8.3 | 9
CCOC(=O)C1=C(C2CCc3nn(CCC(=O)O)cc3C2)NC(c2nccs2)=NC1c1ccc(F)c(F)c1Br (single isomer, unassigned) [Compound 36b, 3-(5-(6-(2-Bromo-3,4-difluorophenyl)-5-(ethoxycarbonyl)-2-(thiazol-2-yl)-3,6-dihydropyrimidin-4-yl)-4,5,6,7-tetrahydro-2H-indazol-2-yl)propanoic acid] | 96.5 | 11.7 | 
CCOC(=O)C1=C(C2CCc3nn(CCC(=O)O)cc3C2)NC(c2nccs2)=NC1c1ccc(F)cc1Br (single isomer, unassigned) [Compound 39c, 3-(5-(6-(2-Bromo-4-fluorophenyl)-5-(ethoxycarbonyl)-2-(thiazol-2-yl)-3,6-dihydropyrimidin-4-yl)-4,5,6,7-tetrahydro-2H-indazol-2-yl)propanoic acid] | 14.5 | 11.9 | 
COC(=O)C1=C(C2CCc3nn(CCC(=O)O)cc3C2)NC(c2nccs2)=NC1c1cccc(F)c1Cl (single isomer, unassigned) [Compound 44c, 3-(5-(6-(2-Chloro-3-fluorophenyl)-5-(methoxycarbonyl)-2-(thiazol-2-yl)-3,6-dihydropyrimidin-4-yl)-4,5,6,7-tetrahydro-2H-indazol-2-yl)propanoic acid] | 32.9 | 36.7 | 
CCOC(=O)C1=C(C2CCc3nn(CC(=O)O)cc3C2)NC(c2nccs2)=NC1c1ccc(F)c(F)c1Cl (single isomer, unassigned) [Compound 49c] | 110 | 25.4 | 
